In article PMC7687371, “Quantitative in Vitro to in Vivo Extrapolation (QIVIVE) for Predicting Reduced Anogenital Distance Produced by Anti-Androgenic Pesticides in a Rodent Model for Male Reproductive Disorders” (Environmental Health Perspectives, 2020):
Where two headings read alike, the source gives them in different places. Marks after values point to notes of the source that are not given here.

What was measured:
NCI-H295R cells = assay: H295R steroidogenesis assay; format: cell-based, human; settings: for Effect on androgen (steroid) synthesis, in words: H295R steroidogenesis assay; for IC20 / IC50: Homo sapiens, NCI-H295R; for IC20: read-out: Testosterone inhibition (IC20 µM); for IC50: 48 h, read-out: Testosterone inhibition (IC50, μM)
Protocol: To capture effects on steroid hormone synthesis (testosterone and androstendione), we tested all 12 pesticides in the H295R assay with the human adrenocortical carcinoma cell line NCI-H295R (American Type Culture Collection no. CRL-2,128, LGC Standards), as previously described ([Hecker et al. 2011]; [Rosenmai et al. 2013]). In brief, cells were cultured in DMEM/F-12 +glutamine medium with HEPES buffer (Invitrogen) containing 1% insulin-transferrin-sodium selenite plus Premix (VWR) and 2.5% Nu-Serum (BD Bioscience) at 37°C in a 5% CO2 atmosphere. The day before exposure, cells were seeded 300,000 per well in clear 24-well plates (VWR Corning). Cells were exposed for 48 h to control (Forskolin: 1μM , 10μM (Sigma-Aldrich); and Prochloraz: 0.3μM , 3μM (VWR-Bie and Berntsen) or test compounds. The vehicle (DMSO) concentration was kept constant in all wells (0.1%). After 48 h, the exposure culture medium was removed and stored at –80°C until the levels of 10 steroid hormones (testosterone, androstenedione, aldosterone, corticosterone, cortisol, dehydroepiandrosterone, 17α-hydroxyprogesterone , progesterone, estrone, and 17β-estradiol ) were quantified using the high-performance liquid chromatography–tandem mass spectrometry method described elsewhere ([Mortensen and Pedersen 2007]). Minor modifications were made to accommodate a smaller sample size and to include more hormones. The liquid chromatography system (Agilent 1100) was equipped with an Atlantis C18 column ( 2.1×150mm , 3μm ) (Waters Corp.) maintained at 40°C. The sample injection volume was 50μL . […] The mass spectrometer was a Quattro Ultima triple quadrupole instrument (Waters Corp.). […] Each pesticide was tested in 2-fold serial dilutions at concentrations between 0.8 and 50μM in three independent experiments, and hormone levels were normalized to the solvent controls containing 0.1% DMSO. Cell viability was evaluated by using the 3-(4,5-dimethylthiazol-2-yl)-2,5- diphenyltetrazolium bromide (MTT) assay (Sigma) as previously described ([Hecker et al. 2011]; [Rosenmai et al. 2013]). Fluorescence was measured (excitation 560 nm , emission 590 nm ) using a Wallac Victor2 1420 multilabel counter (PerkinElmer).

[1] = PBK model first-order kinetic parameters fitted to in vivo ADME data; parameters: species or system rat; settings: for Metabolism rate in liver, Total (L/h) KMetab: metabolic clearance
[2] = parameters: method as in U.S. EPA 2012; settings: EPI Suite, experimental preferred over modeled; ref U.S. EPA 2012; cited from earlier work
pregnant dams and pups = settings: cited from earlier work; for Critical toxicity / NOAEL (mg/kg bw) / LOAEL (mg/kg bw): ref EFSA's Draft Assessment Reports (DARs)
[3] = Fetal chemical exposure analysis (LC-QTOF) at GD21; format: in vivo, rat; settings: male, Wistar, rat, in vivo, 60 mg/kg/day
Protocol: Dams were decapitated under CO2 /oxygen anesthesia at GD21 and fetuses collected by cesarean section. Prior to decapitation of the fetuses, their BWs and AGDs were recorded. Blood from the dams was collected in heparinized vacutainer tubes, centrifuged at 125×g for 10 min at 4°C to prepare plasma, and, together with the amniotic fluid, frozen directly. Pooled trunk blood from all female and male fetuses of the same litter (female and male blood separately) was collected into heparin-treated capillary tubes approximately 90 min after dosing and the plasma was prepared and stored at −80°C until analysis for pesticides and selected metabolites by liquid chromatography quadrupole time-of-flight mass spectroscopy (LC-QTOF). Details about the LC-QTOF analyses are provided in “Method S1” in Supplemental Material. Amniotic fluid was collected from fetuses by pipetting, pooled within each litter, snap frozen in liquid nitrogen, and subsequently stored at −80 °C .
Method S1. Chemical analysis of pesticide levels
Acetonitrile, methanol, formic acid and 25% ammonium hydroxide, all of LC-MS grade and ethyl acetate were obtained from Sigma Aldrich, Schneldorf, Germany. Isolute bulk C-18 sorbent was obtained from Biotage, Sweden and was washed with acetonitrile and ethyl acetate and dried prior to use. Water was purified on a Milli Q system, Millipore Corporation, US.
Pesticide standards were purchased from Dr. Ehrenstorfer (Augsburg, Germany), LGC-standards (Teddington, Middlesex, UK) and Sigma Aldrich (St. Louis, MO, USA). Acetonitrile used as solvents for the LC-QTOF was LiChrosolv Hypergrade. An ESI-L low concentration tuning mix from Agilent (Santa Clara, CA, USA) was used for tuning of the TOF. A reference solution was prepared containing Purine and HP0921 from Agilent (Santa Clara, CA, USA).
Stock solutions of the pesticides were prepared at 1 mg/ml in acetonitrile, methanol or toluene.
Standard mixtures containing the test compounds were prepared at a concentration of 10 µg/ml acetonitrile and used for preparation of calibration solutions. Isomers eluting very close to each other were avoided in these mixtures. […]
added 200 µl of ice-cold acetonitrile in Eppendorf tubes. Internal standard was added in the form of 10 µl TPP (5 µg/ml) and the extraction was performed by whirl mixing. The tube was then stored on ice for 5 min and then centrifuged at 10,000 x g for 10 min at 4 °C (Ole Dich Instrument, Denmark). An aliquot of the supernatant was transferred to filter vials (0.45 µm) and analysed by […]
Quality control samples were included in each analytical run. These were prepared using the same procedure as for the samples, though using amniotic fluid from untreated control Wistar rats extracted with acetonitrile containing three different levels of the relevant pesticide standards. The resulting spike levels were 0.04, 0.013 and 0.13 µg/ml. […]
fluid or plasma from Sprague Dawley rats was transferred to an Eppendorf vial and added 150 µl of acetonitrile. 50 mg of isolute C-18 sorbent was added to the tube, which was shaken for 5 min, […]
cooled to 4 °C and centrifuged at 10,000 x g for 10 min at 4 °C (Ole Dich Instrument makers, Denmark). 20 µl of the supernatant was transferred to an HPLC vial and mixed with 80 µl of 5%- 75% acetonitrile (this percentage was analyte dependent) prior to analysis by LC-MS.LC -QTOF […]
Pesticide screening was carried out using a liquid chromatography-electrospray ionization-quadrupole-time of flight-mass spectrometer.
The LC system was connected to a Bruker Daltonics, maXis qTOF mass spectrometer equipped with an electrospray ion source operated in positive ion mode (Bruker Daltonics, Bremen, Germany). The ion source settings were: nebulizer pressure 2 bars, drying gas flow 8 l/min, dry gas temperature 200 °C, capillary voltage 2500 V. The scan range was from 80 to 700 m/z with an acquisition rate of 2 Hz. Sodium formate dissolved in 50% 2-propanol was introduced in the ion […]

Wistar rats [4] = settings: rat, in vivo
Wistar rats [5] = assay: In vivo Study 3 (fludioxonil, cyprodinil, dimethomorph), reproductive/developmental toxicity, AGD
[6] = plasma; cited from earlier work

SMILES | Effect on androgen (steroid) synthesis, in words (NCI-H295R cells) | IC20 (NCI-H295R cells) | Corticosterone, LOEC (NCI-H295R cells; multiple contrast tests) | Cortisol, LOEC (NCI-H295R cells; multiple contrast tests) | Fecal excretion rate from gut (L/h) KFeces ([1]; PBK model parameter) | Portal GI absorption rate into liver (L/h) KAS ([1]; PBK model parameter) | Urine excretion rate from kidney (L/h) KUrine ([1]; PBK model parameter) | Metabolism rate in liver, Total (L/h) KMetab ([1]; PBK model parameter) | log Kow [2] | Critical toxicity (pregnant dams and pups) | IC50 (NCI-H295R cells) | Androstendione, LOEC (NCI-H295R cells; multiple contrast tests) | Estradiol, LOEC (NCI-H295R cells; multiple contrast tests) | Testosterone, lowest observed effect concentration (LOEC) (NCI-H295R cells; multiple contrast tests) | NOAEL (mg/kg bw) (pregnant dams and pups) | Unbound plasma fraction (%) [6] | LOAEL (mg/kg bw) (pregnant dams and pups) | other results
CC1(C)[C@H](C(=O)O[C@H](C#N)c2cccc(Oc3ccccc3)c2)[C@@H]1/C=C(\Cl)C(F)(F)F (racemic) [λ-Cyhalothrin, λ-cyhalothrin] | no effect on any measured androgen | > 50 µM | 3.1 µM | 3.1 µM | 4 L/h | 1 L/h | 0.05 L/h | 0.3 L/h | 6.80 | Reduced maternal and pup BW | – | – | – | – | – | – | – | –
Cc1cc(C2CC2)nc(Nc2ccccc2)n1 [Cyprodinil, cyprodinil] | inhibited testosterone synthesis | 0.4 µM | 25 µM | 25 µM | 1 L/h | 1 L/h | 0.2 L/h | 0.01 L/h | 4.00 | Reduced maternal and pup BW | 8.5 µM | 6.3 µM | 6.3 µM | 6.3 µM | 71 mg/kg bw | – | – | Biliary excretion rate (L/h) KBiliary ([1]; PBK model parameter): 1.6 L/h; Measured concentration in male fetuses [3]: 6.6 µM; Shortening of AGDI compared with male controls (normalized AGDI scale) (Wistar rats [4]; male, Wistar (HanTac:WH)): around 10%; AGDI mean (Wistar rats [4]; male, Wistar, 20 mg/kg): 2.13; AGDI mean (Wistar rats [4]; male, Wistar, 60 mg/kg): 1.98; AGDI reduction (%) (Wistar rats [4]; male, Wistar, 60 mg/kg/day): 16%; AGDI mean (Wistar rats [4]; male, Wistar, 180 mg/kg): 2.09; Nipple retention at PD14, statistics in words (Wistar rats [4]): no statistically significant effects on nipple retention; Maternal liver toxicity (pregnant dams and pups; 180 mg/kg per day, ref EFSA 2005): induce maternal liver toxicity; % postnatal deaths (Wistar rats [5]; 20 mg/kg bw/day): 1.2 ± 3.7%; % postnatal deaths (Wistar rats [5]; 60 mg/kg bw/day): 0.0 ± 0.0%; % postnatal deaths (Wistar rats [5]; 180 mg/kg bw/day): 0.0 ± 0.0%
NC(=O)Nc1ccc(Cl)c(Cl)c1 [DPU, 1-(3,4-Dichlorophenyl)urea] | – | – | – | – | – | – | 0.05 L/h | – | 2.00 | – | 5 µM | – | – | – | – | – | – | Metabolism rate in liver, Metabolite ([1]; conversion of parent compound into active metabolite): 0.25 L/h
CC1(C(=O)Nc2ccc(O)c(Cl)c2Cl)CCCCC1 [Fenhexamide, fenhexamid] | inhibited testosterone synthesis | 5.2 µM | 3.1 µM | 3.1 µM | 3 L/h | 1 L/h | 0.05 L/h | 0.15 L/h | 3.51 | Reduced maternal body and organ weight | – | 12.5 µM | 12.5 µM | 6.3 µM | 45 mg/kg bw | 5.7^g % | 450 mg/kg bw | DHEA, LOEC (NCI-H295R cells; multiple contrast tests): 12.5 µM; OH-Progesterone, LOEC (NCI-H295R cells; multiple contrast tests): 25 µM; Progesterone, LOEC (NCI-H295R cells; multiple contrast tests): 12.5 µM
Cc1cc(C)nc(Nc2ccccc2)n1 [Pyrimethanil, pyrimethanil] | no effect on any measured androgen | > 50 µM | – | – | 0.1 L/h | 1 L/h | 0.01 L/h | 0.8 L/h | 2.84 | Reduced maternal and pup BW | – | – | – | – | 23 mg/kg bw | 2.0^g % | 294 mg/kg bw | –
